The values below come from patent US20230355632A1, “DEUTERATED PARAXANTHINE AND USES THEREOF” (Lennham Pharmaceuticals, Inc., priority 2020, published 2023).

The AUC(0-t) is exposure summed from dosing to a finite time, without extrapolation to infinity. By Cmax is commonly meant the peak of the concentration-time curve. The term Tmax denotes the time from dosing to the highest level. In general, half-life refers to the time in which the quantity being followed falls by half.

Each structure is given as a SMILES string.

A short description of data set [1]: Human pharmacokinetic (PK) crossover study of caffeine versus d9-caffeine; plasma metabolites paraxanthine / paraxanthine-d6. It counts as in vivo. The following applies: for elimination ½ life: estimated, over both dose levels (0.26 and 1.29 mmol caffeine or d9-caffeine), as metabolite in human plasma; for AUC(0-t) / Cmax / Tmax / half-life: human, plasma, plasma metabolite, arithmetic mean, healthy adults. The method, then: A double-blind, randomized, two-part, two-period crossover study was conducted to evaluate the pharmacokinetics of caffeine versus d9-caffeine (depicted as compound 14 within U.S. Pat. No. 10,582,716, the disclosure of which is incorporated herein by reference) and their respective metabolites at two dose levels in 20 healthy adult volunteers. A single dose of 50 mg (0.26 mmol) or 250 mg (1.29 mmol) of caffeine, or a molar-equivalent dose of d9-caffeine, were administered in aqueous solution with blood samples collected for up to 48 hours post-dose. Plasma concentrations of parent and metabolites were analyzed using validated LC-MS/MS methods. The pharmacokinetic parameters of the primary caffeine metabolite, paraxanthine, and its respective counterpart, paraxanthine-d6, were analyzed and are reported in Table 2. The elimination ½ life of paraxanthine was estimated at 5-8 hours, consistent with published literature. The elimination ½ life of paraxathine-d6 was estimated at >18-22 hours, a […] difference. […] The data from this study supports the administration of paraxanthine-d6 once daily to humans to prevent or treat various diseases and conditions.

A short description of data set [2]: Pharmacokinetic (PK) study in Sprague-Dawley rats, plasma, oral (gavage) dose. It counts as in vivo. The following applies: rat; for AUC(0-t) / Cmax / Tmax: plasma, single oral (gavage) dose, fasted male Sprague Dawley rats, target dose 30 mg/kg (paraxanthine-d6 31 mg/kg, adjusted for MW). The method, then: Two groups of fasted male Sprague-Dawley rats (12 animals per group) may be administered an oral single dose of paraxanthine in deionized water (Group 1) or paraxanthine-d6 (a compound of Formula (Ia)), in deionized water (Group 2) at a target dose level of […]. Serial blood samples may be collected from three animals per group per timepoint prior to dosing and at 0.25, 0.5, 1, 2, 3 4, 6, 8, 10, 12, and 14-hours post dose. No more than three blood samples may be collected from individual animals with the last sample being a terminal blood draw. Terminal brain samples may be collected from three animals per group at 1, 4, 8, and 14-hours post dose. Blood samples may be collected into tubes containing sodium heparin, and then processed for plasma and stored frozen until bioanalysis. Brain samples may be collected following the terminal blood collection, rinsed with saline, and stored frozen until bioanalysis. Plasma and brain samples may be analyzed for paraxanthine and paraxanthine-d6 (a compound of Formula (Ia)) concentration using a liquid chromatography-tandem mass spectrometry (LC-MS/MS) method. Non-compartmental pharmacokinetic parameter estimates may be calculated from the mean plasma concentration-time data. A pharmacokinetic (PK) study was conducted in Sprague-Dawley rats. Mean pharmacokinetic parameter estimates in plasma for paraxanthine and paraxanthine-d6 (a compound of Formula (Ia)) following an oral dose of paraxanthine or D6-paraxanthine to male Sprague-Dawley rats are reported in Table 1. […] The dose level for paraxanthine-d6 (a compound of Formula (Ia)) was adjusted to account for molecular weight differences between paraxanthine (MW=180.17) and paraxanthine-d6 (MW=186.2).

[3] abbreviates: single dose 0.26 mmol caffeine (paraxanthine) or 0.26 mmol d9-caffeine (paraxanthine-d6).
[4] abbreviates: single dose 1.29 mmol caffeine (paraxanthine) or 1.29 mmol d9-caffeine (paraxanthine-d6).

As for `Cn1c(=O)[nH]c2ncn(C)c2c1=O` [Paraxanthine, paraxanthine], the “elimination ½ life” value in data set [1] was 5 to 8 h. Besides, in data set [1] (setting [3]), the AUC(0-t) was 31.5 µM·h, the highest concentration (Cmax) was 1620 nM, the time of peak concentration (Tmax) came to 8.22 h and the half-life is 7.58 h. For the same molecule, in data set [1] (setting [4]), the area under the curve AUC(0-t) turned out to be 122 µM·h, the Cmax turned out to be 7170 nM, the Tmax came to 7.5 h and the half-life was 5.74 h. Further, in data set [2], the AUC(0-t) turned out to be 170 µg·h/mL, the peak concentration (Cmax) was found to be 38900 ng/mL and the time of peak concentration (Tmax) amounted to 0.5 h.
As for `[2H]C([2H])([2H])n1c(=O)[nH]c2ncn(C([2H])([2H])[2H])c2c1=O` [Paraxanthine-d6, paraxanthine-d6], in data set [1], the “elimination ½ life” value was 18 to 22 h. Also, in data set [1] (setting [3]), the area under the curve AUC(0-t) worked out at 110 µM·h, the Cmax is 2900 nM, the time to peak (Tmax) came to 21.1 h and the half-life is over 18 h. Besides, in data set [1] (setting [4]), the area under the curve AUC(0-t) was determined as 110 µM·h, the Cmax worked out at 2900 nM, the Tmax stood at 21.1 h and the half-life was over 22 h. Moreover, in data set [2] (in vivo), the “elimination ½ life of paraxanthine-d6 compared with paraxanthine” value is given as “no difference”. Moreover, in data set [2], the AUC(0-t) turned out to be 196 µg·h/mL, the Cmax amounted to 42400 ng/mL and the Tmax was determined as 0.5 h.
